Reference: patent US9371331B2, “Modulators of methyl modifying enzymes, compositions and uses thereof” (Constellation Pharmaceuticals, Inc., priority 2012, dated 2016)
Read-outs that look alike come from different tables or passages of the source.

Key:
[1] = target: EZH2 (rPRC2) (Homo sapiens, UniProt Q15910); experiment: EZH2 assay: rPRC2, biotinylated oligonucleosomes, 3H SAM methyl transfer (FlashPlate scintillation); format: biochemical; conditions: biotinylated oligonucleosome substrate
[2] = target: Y641N EZH2 (Homo sapiens, UniProt Q15910, Y641N); experiment: Y641N EZH2 assay: as EZH2 assay, with reconstituted H3K27Me2 oligonucleosomes as substrate; format: biochemical
Y641N EZH2, sequence (Q15910 whole entry Y641N): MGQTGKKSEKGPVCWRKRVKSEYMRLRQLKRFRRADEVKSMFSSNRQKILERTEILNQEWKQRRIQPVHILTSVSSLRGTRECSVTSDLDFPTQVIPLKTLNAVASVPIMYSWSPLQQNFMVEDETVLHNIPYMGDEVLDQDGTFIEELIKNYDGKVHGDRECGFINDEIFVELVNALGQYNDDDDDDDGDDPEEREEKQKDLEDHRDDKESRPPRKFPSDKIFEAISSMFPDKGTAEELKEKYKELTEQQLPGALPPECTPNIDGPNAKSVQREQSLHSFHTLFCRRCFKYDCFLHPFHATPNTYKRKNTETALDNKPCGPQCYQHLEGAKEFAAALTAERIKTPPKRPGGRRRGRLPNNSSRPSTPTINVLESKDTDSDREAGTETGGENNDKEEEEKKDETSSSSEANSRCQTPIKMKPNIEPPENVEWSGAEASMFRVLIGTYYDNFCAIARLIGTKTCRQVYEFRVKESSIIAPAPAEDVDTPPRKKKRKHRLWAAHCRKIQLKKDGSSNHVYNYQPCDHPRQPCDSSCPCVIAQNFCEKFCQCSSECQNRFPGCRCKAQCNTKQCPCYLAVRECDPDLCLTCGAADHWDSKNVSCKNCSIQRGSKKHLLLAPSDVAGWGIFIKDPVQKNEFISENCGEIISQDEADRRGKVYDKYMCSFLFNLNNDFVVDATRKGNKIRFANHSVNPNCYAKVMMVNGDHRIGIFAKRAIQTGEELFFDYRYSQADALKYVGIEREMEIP
Y641N EZH2, sequence (O75530 whole entry partner): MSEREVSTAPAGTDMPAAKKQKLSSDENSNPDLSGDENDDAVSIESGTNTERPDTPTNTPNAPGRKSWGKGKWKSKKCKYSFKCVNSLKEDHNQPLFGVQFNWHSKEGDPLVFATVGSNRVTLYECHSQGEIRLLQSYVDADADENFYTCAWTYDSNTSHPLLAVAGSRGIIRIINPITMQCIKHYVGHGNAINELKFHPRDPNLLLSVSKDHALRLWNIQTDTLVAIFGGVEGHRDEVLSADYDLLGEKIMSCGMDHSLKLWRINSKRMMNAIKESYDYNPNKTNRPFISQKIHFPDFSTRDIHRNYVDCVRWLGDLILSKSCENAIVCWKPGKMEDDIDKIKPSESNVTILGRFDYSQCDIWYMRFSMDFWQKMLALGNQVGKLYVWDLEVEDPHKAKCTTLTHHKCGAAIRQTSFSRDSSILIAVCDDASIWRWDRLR
Y641N EZH2, sequence (Q15022 whole entry partner): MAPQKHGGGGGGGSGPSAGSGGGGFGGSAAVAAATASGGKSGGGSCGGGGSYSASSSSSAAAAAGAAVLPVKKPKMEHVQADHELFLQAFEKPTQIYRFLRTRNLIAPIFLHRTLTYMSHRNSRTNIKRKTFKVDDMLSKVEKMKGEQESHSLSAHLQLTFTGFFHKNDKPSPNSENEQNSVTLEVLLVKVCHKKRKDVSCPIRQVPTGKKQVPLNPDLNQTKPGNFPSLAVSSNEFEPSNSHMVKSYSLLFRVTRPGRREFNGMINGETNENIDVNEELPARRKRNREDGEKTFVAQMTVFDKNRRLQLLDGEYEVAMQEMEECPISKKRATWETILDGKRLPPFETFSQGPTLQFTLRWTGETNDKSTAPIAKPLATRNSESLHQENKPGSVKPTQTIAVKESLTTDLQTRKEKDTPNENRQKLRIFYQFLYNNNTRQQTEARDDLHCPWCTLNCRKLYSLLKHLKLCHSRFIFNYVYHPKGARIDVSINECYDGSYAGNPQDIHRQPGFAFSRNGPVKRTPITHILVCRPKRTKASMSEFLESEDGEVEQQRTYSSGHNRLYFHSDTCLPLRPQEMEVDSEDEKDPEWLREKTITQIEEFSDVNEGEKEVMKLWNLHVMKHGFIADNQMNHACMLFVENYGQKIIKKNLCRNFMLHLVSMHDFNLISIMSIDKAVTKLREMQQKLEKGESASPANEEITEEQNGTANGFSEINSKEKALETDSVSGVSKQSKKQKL

[3] = test system: H3K27me3 mark in HeLa cells; experiment: H3K27me3 MSD Hela Assay; format: cell-based; conditions: Homo sapiens, read-out: H3K27me3_MSD_HeLa_ (EC50)
Method: Trypsinized HeLa cells were counted and diluted in 10% DMEM (Life Technologies, Cat. #10569) to 5000 cells/75 μL. Seventy-five […] of cells were place in each well of a 96-well flat-bottomed plate and incubated at 37° C. for 4 hours. Twenty-five μL of test compound (at various concentrations) was added to the cells and incubation continued at 37° C. for 96 hours. Media was then removed and the cells rinsed once with ice cold PBS. Forty μL of ice-cold MSD Buffer AT (10 mM HEPES, pH 7.9, 5 mM MgCl2, 0.25M sucrose, Benzonase (1:10000), 1% Triton X-100 supplemented with fresh 1× Protease Inhibitor cocktail and 1 mM 4-(2-Aminoethyl)benzenesulfonyl fluoride hydrochloride (AEBSF)) was added to each well and the plates placed on ice for 30 minutes. Ten μL of 5M NaCl was then added to each well and incubation on ice continued for another 15 minutes. The material in each well was suspended pipetting up and down and then transferred to a new 96 well plate. The emptied wells were rinsed with 150 uL ice-cold 20 mM Tris pH 7.5, 1 mM EDTA, 1 mM EGTA, supplemented with fresh 1× Protease Inhibitor cocktail and 1 mM AEBSF (“NO salt NO detergent buffer) and transferred to the respective wells in the new plate. Three hundred μL of NO Salt NO detergent buffer was then added to each well of lysates and the plates frozen at −80° C.
On the same day, an appropriate number of MSD standard bind 96-well plates were coated with 30 μL/well of total H3 capture antibody (Millipore. Cat #MAB3422) at 1 μg/mL concentration in PBS. The antibody solution was evenly distributed first by tapping gently on the sides of the plates and then by shaking the plates for a few minutes at 1000 rpm. Antibody coated plates were stored at 4° C. overnight.
The next day the lysates are thawed to RT. The antibody coated MSD plates are washed 3× with TBS-T (Tris-buffered saline (Fisher Scientific, Cat #BP2471-1)+0.2% Tween-20). One-hundred fifty μL of 5% Blocker A in TBS-T is added to each well. The wells are covered and shaken on a shaker at RT for one hour. The Blocker A step is repeated a second time. After removing the blocker, 25 μL of cell lysate is transferred into each antibody coated well. The plates are shaken for 2 hours at RT, the lysate removed and the plates again washed with Blocker A in TBS-T. Twenty-five μL of appropriate freshly prepared antibody mix (including both primary and secondary antibodies) is added to each well and the plates shaken for 1 hour at RT.
Both H3 antibodies were obtained from Cell Signalling (Cat #s 4499 and 9733). The goat anti-rabbit antibody was obtained from Meso-Scale Discovery (Cat #R32AB-1).
The antibody mix was then removed and the wells washed with Blocker A. One hundred-fifty μL of freshly prepared 1×MSD Read Buffer (Meso-Scale Discovery; Cat #R927C-2) was then added to each well and the plates read on a MSD Sector 2400 Plate Reader.
Data was analyzed using Assay Assistant (Constellation Pharmaceuticals In-house product) and Activity Base (IDBS Ltd, Surrey, UK) template. Data files were imported to Assay Assistant and assay conditions were specified. A unique Analysis ID was created and the data files exported to Activity Base. An analysis template was created on Activity Base to measure dose-dependent inhibition of H3K27me3 mark and cell viability respectively. Readout of DMSO wells were used to normalize the data. Resulting curves were fitted using Activity base software Model 205 (IDBS Ltd. Surrey, UK). The data was checked for quality, validated and integrated in excel format using SARview (IDBS Ltd, Surrey, UK).

[4] = EZH2 IC50, wild-type EZH2 (rPRC2)
[5] = Y641N EZH2 IC50, Y641N mutant EZH2, H3K27Me2 oligonucleosome substrate
[6] = wild-type EZH2 (rPRC2), read-out: EZH2 IC50
[7] = Y641N mutant EZH2, H3K27Me2 oligonucleosome substrate, read-out: Y641N EZH2 IC50

EZH2 (rPRC2), sequence (Q15910 whole entry): as the sequence (Q15910 whole entry Y641N) above, with N641Y counted along it
EZH2 (rPRC2), sequence (O75530 whole entry partner): as the sequence (O75530 whole entry partner) above
EZH2 (rPRC2), sequence (Q15022 whole entry partner): as the sequence (Q15022 whole entry partner) above

| Structure (SMILES) | IC50 [1, 4] [nM] | IC50 [2, 5] [nM] | EC50 ([3]; HeLa, 96 h) [nM] | IC50 [1, 6] [nM] | IC50 [2, 7] [nM] | EC50 ([3]; HeLa cells, MSD, 96 hours) [nM] |
| --- | --- | --- | --- | --- | --- | --- |
| COCC(C)n1c(C)c(C(=O)NCc2c(OC)cc(C)[nH]c2=O)c2ccc(F)cc21 (racemic) [Compound 231, (±)-6-fluoro-N-((4-methoxy-6-methyl-2-oxo-1,2-dihydropyridin-3-yl)methyl)-1-(1-methoxypropan-2-yl)-2-methyl-1H-indole-3-carboxamide] | < 100 | 100 to 1000 | 400 to 2000 |  |  |  |
| Cc1cc(C)c(CNC(=O)c2c(C)n(C(C)Cn3cnc4ccccc43)c3ncccc23)c(=O)[nH]1 (racemic) [Compound 238, (±)-1-(1-(1H-benzo[d]imidazol-1-yl)propan-2-yl)-N-((4,6-dimethyl-2-oxo-1,2-dihydropyridin-3-yl)methyl)-2-methyl-1H-pyrrolo[2,3-b]pyridine-3-carboxamide] |  |  |  | 100 to 1000 | 1000 to 10000 | 2000 to 10000 |
| COc1cc(C)[nH]c(=O)c1CNC(=O)c1c(C)n(C(C)c2cccc(C#N)c2)c2ncccc12 (racemic) [Compound 239, (±)-1-(1-(3-cyanophenyl)ethyl)-N-((4-methoxy-6-methyl-2-oxo-1,2-dihydropyridin-3-yl)methyl)-2-methyl-1H-pyrrolo[2,3-b]pyridine-3-carboxamide] | < 100 | < 100 | 400 to 2000 |  |  |  |
| COCC(C)n1c(C)c(C(=O)NCc2c(C)cc(C)[nH]c2=O)c2ccncc21 (racemic) [Compound 240, (±)-N-((4,6-dimethyl-2-oxo-1,2-dihydropyridin-3-yl)methyl)-1-(1-methoxypropan-2-yl)-2-methyl-1H-pyrrolo[2,3-c]pyridine-3-carboxamide] | < 100 | 100 to 1000 | 2000 to 10000 |  |  |  |
| COc1cc(C)[nH]c(=O)c1CNC(=O)c1c(C)n(C(C)c2cccc(C(N)=O)c2)c2ncccc12 (racemic) [Compound 242, (±)-1-(1-(3-carbamoylphenyl)ethyl)-N-((4-methoxy-6-methyl-2-oxo-1,2-dihydropyridin-3-yl)methyl)-2-methyl-1H-pyrrolo[2,3-b]pyridine-3-carboxamide] |  |  |  | < 100 | 100 to 1000 | 2000 to 10000 |
| COc1cc(C)[nH]c(=O)c1CNC(=O)c1c(C)n(C(C)c2ccccc2)c2cnccc12 (racemic) [Compound 243, (±)-N-((4-methoxy-6-methyl-2-oxo-1,2-dihydropyridin-3-yl)methyl)-2-methyl-1-(1-phenylethyl)-1H-pyrrolo[2,3-c]pyridine-3-carboxamide] | < 100 | 100 to 1000 | 2000 to 10000 |  |  |  |
| Cc1cc(C)c(CNC(=O)c2c(C)n(C(C)CS(C)(=O)=O)c3ncccc23)c(=O)[nH]1 (racemic) [Compound 250, (±)-N-((4,6-dimethyl-2-oxo-1,2-dihydropyridin-3-yl)methyl)-2-methyl-1-(1-(methylsulfonyl)propan-2-yl)-1H-pyrrolo[2,3-b]pyridine-3-carboxamide] |  |  |  | < 100 | 100 to 1000 | 2000 to 10000 |
| COCC(C)n1c(C)c(C(=O)NCc2c(C)cc(C)[nH]c2=O)c2scnc21 (racemic) [Compound 254, (±)-N-((4,6-dimethyl-2-oxo-1,2-dihydropyridin-3-yl)methyl)-4-(1-methoxypropan-2-yl)-5-methyl-4H-pyrrolo[2,3-d]thiazole-6-carboxamide] |  |  |  | 100 to 1000 | 100 to 1000 | 2000 to 10000 |
| COc1cc(C)[nH]c(=O)c1CNC(=O)c1c(C)n(C(C)C2(C)COC2)c2ccccc12 (racemic) [Compound 291] | < 100 | 100 to 1000 | 400 to 2000 |  |  |  |
| Cc1cc(C)c(CNC(=O)c2c(C)n(C(C)c3ccccc3)c3ncccc23)c(=O)[nH]1 (single isomer, unassigned) [Compound 116, N-((4,6-dimethyl-2-oxo-1,2-dihydropyridin-3-yl)methyl)-2-methyl-1-(1-phenylethyl)-1H-pyrrolo[2,3-b]pyridine-3-carboxamide] | < 100 | 100 to 1000 | 400 to 2000 |  |  |  |
| Cc1cc(C)c(CNC(=O)c2c(C)n(C(C)c3cccc(C#N)c3)c3ccccc23)c(=O)[nH]1 (single isomer, unassigned) [Compound 227, (R or S)-1-(1-(3-cyanophenyl)ethyl)-N-((4,6-dimethyl-2-oxo-1,2-dihydropyridin-3-yl)methyl)-2-methyl-1H-indole-3-carboxamide] | < 100 | < 100 | 400 to 2000 |  |  |  |
| COCC(C)n1c(C)c(C(=O)NCc2c(OC)cc(C)[nH]c2=O)c2cccnc21 (single isomer, unassigned) [Compound 256, (R or S)-N-((4-methoxy-6-methyl-2-oxo-1,2-dihydropyridin-3-yl)methyl)-1-(1-methoxypropan-2-yl)-2-methyl-1H-pyrrolo[2,3-b]pyridine-3-carboxamide] | < 100 | 100 to 1000 | 400 to 2000 |  |  |  |
| COc1cc(C)[nH]c(=O)c1CNC(=O)c1c(C)n(C(C)c2ccccc2)c2cnccc12 (single isomer, unassigned) [Compound 258, (R or S)-N-((4-methoxy-6-methyl-2-oxo-1,2-dihydropyridin-3-yl)methyl)-2-methyl-1-(1-phenylethyl)-1H-pyrrolo[2,3-c]pyridine-3-carboxamide] | < 100 | < 100 | 400 to 2000 |  |  |  |
| COc1cc(C)[nH]c(=O)c1CNC(=O)c1c(C)n(C(C)CS(C)(=O)=O)c2ccccc12 (single isomer, unassigned) [Compound 279, (R or S)-N-((4-methoxy-6-methyl-2-oxo-1,2-dihydropyridin-3-yl)methyl)-2-methyl-1-(1-(methylsulfonyl)propan-2-yl)-1H-indole-3-carboxamide] | < 100 | 100 to 1000 | 2000 to 10000 |  |  |  |
| COc1cc(C)[nH]c(=O)c1CNC(=O)c1c(C)n([C@H](C)[C@H](OC)C2CC2)c2ncccc12 (single isomer, unassigned) [Compound 286, 1-((1R or S, 2R or S)-1-cyclopropyl-1-methoxypropan-2-yl)-N-((4-methoxy-6-methyl-2-oxo-1,2-dihydropyridin-3-yl)methyl)-2-methyl-1H-pyrrolo[2,3-b]pyridine-3-carboxamide] | < 100 | 100 to 1000 | 400 to 2000 |  |  |  |
| COc1cc(C)[nH]c(=O)c1CNC(=O)c1c(C)n(C(C)C2CCOCC2)c2ncncc12 (single isomer, unassigned) [Compound 319, (R or S)-N-((4-methoxy-6-methyl-2-oxo-1,2-dihydropyridin-3-yl)methyl)-6-methyl-7-(1-(tetrahydro-2H-pyran-4-yl)ethyl)-7H-pyrrolo[2,3-d]pyrimidine-5-carboxamide] | < 100 | < 100 | < 400 |  |  |  |
| COc1ccc2c(C(=O)NCc3c(OC)cc(C)[nH]c3=O)c(C)n(C(C)C3CCOCC3)c2c1 (single isomer, unassigned) [Compound 321, (R or S)-6-methoxy-N-((4-methoxy-6-methyl-2-oxo-1,2-dihydropyridin-3-yl)methyl)-2-methyl-(1-(tetrahydro-2H-pyran-4-yl)ethyl)-1 H-indole-3-carboxamide] | < 100 | < 100 | < 400 |  |  |  |
